Where “and” joins values, the source holds several entries; their conditions need not be identical. Equal entries are not always repeated. Toxic doses and inconclusive results are not listed.
System: P388 leukemia ip, CD2F1 mice, survival T/C
Assay: NCI In Vivo Anticancer Drug Screen. Data for tumor model P388 Leukemia (intraperitoneal) in CD2F1 (CDF1) mice
Settings: endpoint: median survival time, higher = longer survival
In short: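 Mice carrying the transplanted tumor received test compound or vehicle. Survival was recorded in each group, and the value is the treated-group measurement divided by that of the vehicle-treated control group.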

[1] = dose: 50.0 mg/kg/injection, schedule: Q01DX009 (ip), vehicle: saline with Tween-80
[2] = dose: 100.0 mg/kg/injection, schedule: Q01DX009 (ip), vehicle: saline with Tween-80
[3] = dose: 200.0 mg/kg/injection, schedule: Q01DX009 (ip), vehicle: saline with Tween-80
[4] = dose: 60.0 mg/kg/injection, schedule: Q01DX005 (ip), vehicle: saline with Tween-80
[5] = dose: 120.0 mg/kg/injection, schedule: Q01DX005 (ip), vehicle: saline with Tween-80
[6] = dose: 240.0 mg/kg/injection, schedule: Q01DX005 (ip), vehicle: saline with Tween-80
[7] = dose: 50.0 mg/kg/injection, schedule: Q01DX005 (ip), vehicle: Klucel (hydroxypropylcellulose) (HPC)
[8] = dose: 100.0 mg/kg/injection, schedule: Q01DX005 (ip), vehicle: Klucel (hydroxypropylcellulose) (HPC)
[9] = dose: 200.0 mg/kg/injection, schedule: Q01DX005 (ip), vehicle: Klucel (hydroxypropylcellulose) (HPC)
[10] = dose: 50.0 mg/kg/injection, schedule: Q01DX005 (ip), vehicle: saline
[11] = dose: 100.0 mg/kg/injection, schedule: Q01DX005 (ip), vehicle: saline
[12] = dose: 200.0 mg/kg/injection, schedule: Q01DX005 (ip), vehicle: saline
[13] = dose: 12.5 mg/kg/injection, schedule: Q01DX009 (ip), vehicle: saline with Tween-80
[14] = dose: 25.0 mg/kg/injection, schedule: Q01DX009 (ip), vehicle: saline with Tween-80
[15] = dose: 100.0 mg/kg/injection, schedule: Q04DX003 (ip), vehicle: saline
[16] = dose: 200.0 mg/kg/injection, schedule: Q04DX003 (ip), vehicle: saline
[17] = dose: 50.0 mg/kg/injection, schedule: Q01DX009 (ip), vehicle: saline
[18] = dose: 100.0 mg/kg/injection, schedule: Q01DX009 (ip), vehicle: saline
[19] = dose: 200.0 mg/kg/injection, schedule: Q01DX009 (ip), vehicle: saline
[20] = dose: 100.0 mg/kg/injection, schedule: Q04DX003 (ip), vehicle: saline with Tween-80
[21] = dose: 200.0 mg/kg/injection, schedule: Q04DX003 (ip), vehicle: saline with Tween-80
[22] = dose: 400.0 mg/kg/injection, schedule: Q04DX003 (ip), vehicle: saline with Tween-80
[23] = dose: 12.5 mg/kg/injection, schedule: Q01DX009 (ip), vehicle: saline

`COc1cccc(-c2nc3n(n2)CCc2ccccc2-3)c1` was tested, and the T/C [1] was 105 % of control, the T/C [2] was 106 % of control and the T/C [3] was 86 % of control.

With `CSc1nc(NC2OCC(OC(C)=O)C(OC(C)=O)C2OC(C)=O)c(N=CC=Nc2c(NC3OCC(OC(C)=O)C(OC(C)=O)C3OC(C)=O)nc(SC)n(C)c2=O)c(=O)n1C` (stereo unspecified) the T/C [4] was 95 % of control, the T/C [5] was 91 % of control and the T/C [6] was 92 % of control.

For `CC(C)=C1N(C(C)C)C(=C(C)C)N(C(C)C)C(=C(C)C)N1C(C)C`, the T/C [7] was 96 % of control, the T/C [8] was 100 % of control and the T/C [9] was 89 % of control.

`CCN(CC)CCNC(=O)CCC(=O)O` was tested, and the T/C [10] was 102 % of control, the T/C [11] was 100 % of control and the T/C [12] was 100 % of control.

In the case of `O=C(O)CSc1nnc2c3ccccc3c3ccccc3c2n1`, the T/C [13] was 97 % of control, the T/C [14] was 100 % of control and the T/C [1] was 100 % of control and 93 % of control. The T/C [2] was 87 % of control and the T/C [3] was 101 % of control.

For `O=[N+]([O-])c1ccccc1Sc1cccc(Sc2ccccc2[N+](=O)[O-])n1`, the T/C [4] was 100 % of control, the T/C [5] was 105 % of control and the T/C [6] was 102 % of control.

`O=C(NNC(=O)c1ccccc1O)Nc1ccc(Cl)cc1C(F)(F)F` was tested, and the T/C [1] was 103 % of control, the T/C [2] was 106 % of control and the T/C [3] was 100 % of control.

With `COC(=O)c1nc(N)nc(C(=O)OC)c1C(=O)C(C)C` the T/C [4] was 97 % of control and the T/C [5] was 98 % of control.

In the case of `CNC(=O)OCc1c(COC(=O)NC)c(-c2ccc(Br)cc2)n(C)c1C`, the T/C (dose: 20.0 mg/kg/injection, schedule: Q01DX009 (ip), vehicle: distilled water + Tween-80) was 155 % of control.

For `CC(C)(C)C#CP(C#CC(C)(C)C)C#CC(C)(C)C`, the T/C (dose: 12.5 mg/kg/injection, schedule: Q04DX003 (ip), vehicle: Klucel (hydroxypropylcellulose) (HPC)) was 108 % of control, the T/C (dose: 25.0 mg/kg/injection, schedule: Q04DX003 (ip), vehicle: Klucel (hydroxypropylcellulose) (HPC)) was 106 % of control and the T/C (dose: 50.0 mg/kg/injection, schedule: Q04DX003 (ip), vehicle: Klucel (hydroxypropylcellulose) (HPC)) was 111 % of control.

`CC1C(c2ccccc2)NC(c2ccccc2)C(C)C1(O)c1ccccc1` (stereo unspecified) was tested, and the T/C (dose: 50.0 mg/kg/injection, schedule: Q01DX005 (ip), vehicle: saline with Tween-80) was 107 % of control and the T/C (dose: 100.0 mg/kg/injection, schedule: Q01DX005 (ip), vehicle: saline with Tween-80) was 107 % of control.

`O=C1C(=O)c2ncccc2-c2ncccc21` was tested, and the T/C (dose: 7.5 mg/kg/injection, schedule: Q01DX005 (ip), vehicle: saline with Tween-80) was 113 % of control and the T/C (dose: 15.0 mg/kg/injection, schedule: Q01DX005 (ip), vehicle: saline with Tween-80) was 95 % of control.

For `C[N+]1(C)N=C([O-])N(Cc2ccccc2)C1=O`, the T/C [15] was 118 % of control and the T/C [16] was 106 % of control.

In the case of `CC1Cc2c([nH]c3ccccc3c2=O)O1` (stereo unspecified), the T/C [17] was 93 % of control, the T/C [18] was 101 % of control and the T/C [19] was 100 % of control.

With `CCOC(C)(OCC)N(C)C` the T/C [10] was 101 % of control, the T/C [11] was 108 % of control and the T/C [12] was 111 % of control.

`Clc1ccc(C2(c3ccncc3)OCCO2)cc1` was tested, and the T/C (dose: 75.0 mg/kg/injection, schedule: Q01DX001 (ip), vehicle: saline) was 109 % of control, the T/C (dose: 150.0 mg/kg/injection, schedule: Q01DX001 (ip), vehicle: saline) was 104 % of control and the T/C (dose: 300.0 mg/kg/injection, schedule: Q01DX001 (ip), vehicle: saline) was 90 % of control.

In the case of `Cc1cc(C)c[n+](-c2nc3c([O-])n(C)c(=O)n(C)c-3n2)c1`, the T/C [15] was 94 % of control, the T/C [16] was 98 % of control and the T/C (dose: 400.0 mg/kg/injection, schedule: Q04DX003 (ip), vehicle: saline) was 103 % of control.

With `CN(C)CCCNC(=O)c1nn(-c2ccccc2)c2c1N(C)S(=O)(=O)c1ccccc1-2` the T/C [10] was 92 % of control, the T/C [11] was 99 % of control and the T/C [12] was 101 % of control.

For `CC(C)=CCc1c2c(c(O)c3c(=O)c(-c4ccc(O)cc4O)coc13)C=CC(C)(C)O2`, the T/C [14] was 104 % of control, the T/C [1] was 102 % of control and the T/C [2] was 104 % of control. For the same molecule, the T/C [3] was 99 % of control.

With `COc1cccc2c1C(=O)c1c(O)c3c(c(O)c1C2=O)CC(O)(C(C)=O)CC3OC1CC(OC(=O)c2ccc([N+](=O)[O-])cc2)C(OC(=O)c2ccc([N+](=O)[O-])cc2)C(COC(=O)c2ccc([N+](=O)[O-])cc2)O1` (stereo unspecified) the T/C (dose: 3.13 mg/kg/injection, schedule: Q04DX003 (ip), vehicle: distilled water + Tween-80) was 100 % of control and 101 % of control, the T/C (dose: 6.25 mg/kg/injection, schedule: Q04DX003 (ip), vehicle: distilled water + Tween-80) was 100 % of control and 99 % of control and the T/C (dose: 12.5 mg/kg/injection, schedule: Q04DX003 (ip), vehicle: distilled water + Tween-80) was 104 % of control. The T/C (dose: 25.0 mg/kg/injection, schedule: Q04DX003 (ip), vehicle: distilled water + Tween-80) was 102 % of control and 100 % of control and the T/C (dose: 50.0 mg/kg/injection, schedule: Q04DX003 (ip), vehicle: distilled water + Tween-80) was 95 % of control.

`CC1=NN(C(=O)c2cccnc2)C(=O)C1N=Nc1ccc(S(=O)(=O)Nc2ccccn2)cc1` (stereo unspecified) was tested, and the T/C [20] was 94 % of control, the T/C [21] was 93 % of control and the T/C [22] was 90 % of control.

For `O=C(/C=C\c1ccncc1)c1ccc([N+](=O)[O-])cc1`, the T/C (dose: 25.0 mg/kg/injection, schedule: Q01DX009 (ip), vehicle: other) was 103 % of control, the T/C (dose: 50.0 mg/kg/injection, schedule: Q01DX009 (ip), vehicle: other) was 101 % of control and the T/C (dose: 100.0 mg/kg/injection, schedule: Q01DX009 (ip), vehicle: other) was 96 % of control. For the same molecule, the T/C (dose: 200.0 mg/kg/injection, schedule: Q01DX009 (ip), vehicle: other) was 93 % of control and the T/C (dose: 400.0 mg/kg/injection, schedule: Q01DX009 (ip), vehicle: other) was 92 % of control.

With `O=c1[nH]ccc2occc12` the T/C [14] was 100 % of control, the T/C [1] was 100 % of control and the T/C [2] was 109 % of control.

With `COC(=O)c1cc(NC(=O)Oc2ccccn2)cc(C(=O)OC)c1` the T/C (dose: 50.0 mg/kg/injection, schedule: Q01DX009 (ip), vehicle: olive oil, sesame oil, peanut oil) was 98 % of control, the T/C (dose: 100.0 mg/kg/injection, schedule: Q01DX009 (ip), vehicle: olive oil, sesame oil, peanut oil) was 97 % of control and the T/C (dose: 200.0 mg/kg/injection, schedule: Q01DX009 (ip), vehicle: olive oil, sesame oil, peanut oil) was 99 % of control.

`O[O][Sn][c]1ccccc1` was tested, and the T/C [1] was 100 % of control, the T/C [2] was 100 % of control and the T/C [3] was 86 % of control.

`C[Se]C(C)(C)C(O)(Cc1ccccc1)c1ccccc1` (stereo unspecified) was tested, and the T/C (dose: 25.0 mg/kg/injection, schedule: Q04DX002 (ip), vehicle: saline with Tween-80) was 88 % of control, the T/C (dose: 50.0 mg/kg/injection, schedule: Q04DX002 (ip), vehicle: saline with Tween-80) was 94 % of control and the T/C (dose: 100.0 mg/kg/injection, schedule: Q04DX002 (ip), vehicle: saline with Tween-80) was 101 % of control.

In the case of `CC1(C)CCC2=C1CC[C@H]1[C@H]2CCC2=CC(=O)CC[C@@]21C`, the T/C [2] was 90 % of control, the T/C [20] was 110 % of control and the T/C [3] was 100 % of control. The T/C [21] was 105 % of control and the T/C [22] was 115 % of control.

With `CCOP1(=O)N(C)CCN1C` the T/C [23] was 117 % of control, the T/C (dose: 25.0 mg/kg/injection, schedule: Q01DX009 (ip), vehicle: saline) was 111 % of control and the T/C [17] was 101 % of control.

For `COc1ccccc1-n1s/c(=N\OC(=O)c2sc3ccccc3c2Cl)sc1=S`, the T/C [17] was 93 % of control, the T/C [18] was 94 % of control and the T/C [19] was 94 % of control.

In the case of `C/C=C/[Se]c1ccccc1`, the T/C (dose: 6.25 mg/kg/injection, schedule: Q01DX009 (ip), vehicle: saline with Tween-80) was 103 % of control, the T/C [13] was 106 % of control and the T/C [14] was 103 % of control. The T/C [2] was 105 % of control and 107 % of control and 121 % of control.

In the case of `ClC(Cl)(Cl)SSC(=Nc1ccccc1)SSC(Cl)(Cl)Cl`, the T/C [3] was 155 % of control.

For `NC(CO)C(=O)O.[Cl-].[Cl-].[Cl-].[Cl-].[Pt+2]` (stereo unspecified), the T/C (dose: 6.25 mg/kg/injection, schedule: Q01DX009 (ip), vehicle: saline) was 114 % of control, the T/C [23] was 115 % of control and the T/C [17] was 159 % of control.

With `COc1cc(CCN=Cc2cccc(OC)c2O)c([N+](=O)[O-])cc1OC` the T/C [7] was 93 % of control, the T/C [8] was 93 % of control and the T/C [9] was 93 % of control.

From PubChem BioAssay AID330 (DTP/NCI, 2004)
